Assay results as given in ChEMBL document CHEMBL1125122, “Antibacterials. Synthesis and structure-activity studies of 3-aryl-2-oxooxazolidines. 2. The "A" group” (1990).
Converted amounts (≈) assume the structure as drawn.

Tests used:
[1] = tested on: Enterococcus faecalis; assay: In vitro for antibacterial activity against Enterococcus faecalis strain STCO-19; assay type: functional
[2] = tested on: Staphylococcus aureus; assay: In vitro for antibacterial activity against Staphylococcus aureus strain SFCO-1a; assay type: functional

Work on CC(=O)NC[C@H]1CN(c2ccc([S@+](C)[O-])cc2)C(=O)O1 yielded an MIC [1] of 16 µg/mL (≈ 54 µM) and an MIC [2] of 8 µg/mL (≈ 27 µM).
CCCc1ccc(N2C[C@H](CNC(C)=O)OC2=O)cc1 was tested, and the MIC [1] was 4 µg/mL (≈ 14.5 µM) and the MIC [2] was 2 µg/mL (≈ 7.24 µM).
CC(=O)NC[C@@H]1CN(c2ccc(S(C)=O)cc2)C(=O)O1 (stereo partly specified) gave an MIC [1] of 4 µg/mL (≈ 13.5 µM) and an MIC [2] of 4 µg/mL (≈ 13.5 µM).
Compound CC(=O)NC[C@H]1CN(c2ccc(C)cc2)C(=O)O1 has an MIC [1] of 32 µg/mL (≈ 129 µM) and an MIC [2] of 32 µg/mL (≈ 129 µM).
In the case of CC(=O)NC[C@H]1CN(c2ccc(C=O)cc2)C(=O)O1, the MIC [1] is reported as 8 µg/mL (≈ 30.5 µM) and the MIC [2] is reported as 8 µg/mL (≈ 30.5 µM).
CC(=O)NC[C@H]1CN(c2ccc(C(=O)CF)cc2)C(=O)O1 gave an MIC [1] of 2 µg/mL (≈ 6.8 µM) and an MIC [2] of 2 µg/mL (≈ 6.8 µM).
For CC(=O)NC[C@H]1CN(c2ccc(C(C)(C)O)cc2)C(=O)O1, the MIC [1] was 4 µg/mL (≈ 13.7 µM) and the MIC [2] was 2 µg/mL (≈ 6.84 µM).
CCCC(=O)c1ccc(N2C[C@H](CNC(C)=O)OC2=O)cc1 was tested, and the MIC [1] was 0.25 µg/mL (≈ 0.821 µM) and the MIC [2] was 0.25 µg/mL (≈ 0.821 µM).
CCC(=O)c1ccc(N2C[C@H](CNC(C)=O)OC2=O)cc1 gave an MIC [1] of 0.5 µg/mL (≈ 1.72 µM) and an MIC [2] of 1 µg/mL (≈ 3.44 µM).
CC(=O)NC[C@H]1CN(c2ccccc2)C(=O)O1 was tested, and the MIC [1] was 128 µg/mL (≈ 546 µM) and the MIC [2] was 128 µg/mL (≈ 546 µM).
CC(=O)NC[C@H]1CN(c2ccc([S+]([O-])CF)cc2)C(=O)O1 (stereo partly specified) gave an MIC [1] of 8 µg/mL (≈ 25.5 µM) and an MIC [2] of 8 µg/mL (≈ 25.5 µM).
With CC(=O)NC[C@H]1CN(c2ccc(/C=N\O)cc2)C(=O)O1 the MIC [1] was 16 µg/mL (≈ 57.7 µM) and the MIC [2] was 16 µg/mL (≈ 57.7 µM).
For C#Cc1ccc(N2C[C@H](CNC(C)=O)OC2=O)cc1, the MIC [1] was 16 µg/mL (≈ 61.9 µM) and the MIC [2] was 16 µg/mL (≈ 61.9 µM).
Compound CC(=O)NC[C@H]1CN(c2ccc(N)cc2)C(=O)O1 has an MIC [1] of 128 µg/mL (≈ 513 µM) and an MIC [2] of 128 µg/mL (≈ 513 µM).
Compound CC(=O)NC[C@H]1CN(c2ccc([S+](C)[O-])cc2)C(=O)O1 (stereo partly specified) has an MIC [1] of 4 µg/mL (≈ 13.5 µM) and an MIC [2] of 4 µg/mL (≈ 13.5 µM).
CCN(CC)c1ccc(N2C[C@H](CNC(C)=O)OC2=O)cc1 gave an MIC [1] of 16 µg/mL (≈ 52.4 µM) and an MIC [2] of 8 µg/mL (≈ 26.2 µM).
CC(=O)NC[C@H]1CN(c2ccc(C(=O)CC#N)cc2)C(=O)O1 was tested, and the MIC [1] was 64 µg/mL (≈ 212 µM) and the MIC [2] was 8 µg/mL (≈ 26.6 µM).
CCC/C(=N/O)c1ccc(N2C[C@H](CNC(C)=O)OC2=O)cc1 showed an MIC [1] of 4 µg/mL (≈ 12.5 µM) and an MIC [2] of 4 µg/mL (≈ 12.5 µM).
Compound CC(=O)NC[C@H]1CN(c2ccc(C(F)(F)C(F)(F)F)cc2)C(=O)O1 has an MIC [1] of 2 µg/mL (≈ 5.68 µM) and an MIC [2] of 2 µg/mL (≈ 5.68 µM).
CC(=O)NC[C@H]1CN(c2ccc(I)cc2)C(=O)O1 showed an MIC [1] of 8 µg/mL (≈ 22.2 µM) and an MIC [2] of 8 µg/mL (≈ 22.2 µM).
Work on CC(=O)NC[C@H]1CN(c2ccc(Br)cc2)C(=O)O1 yielded an MIC [1] of 8 µg/mL (≈ 25.5 µM) and an MIC [2] of 16 µg/mL (≈ 51.1 µM).
Compound CC(=O)NC[C@H]1CN(c2ccc(C(C)O)cc2)C(=O)O1 (stereo partly specified) has an MIC [1] of 4 µg/mL (≈ 14.4 µM) and an MIC [2] of 4 µg/mL (≈ 14.4 µM).
Work on CC(=O)NC[C@H]1CN(c2ccc(C(O)C(C)C)cc2)C(=O)O1 (stereo partly specified) yielded an MIC [1] of 8 µg/mL (≈ 26.1 µM) and an MIC [2] of 4 µg/mL (≈ 13.1 µM).
In the case of CC(=O)NC[C@H]1CN(c2ccc(C(=O)COC(C)=O)cc2)C(=O)O1, the MIC [1] is reported as 2 µg/mL (≈ 5.98 µM) and the MIC [2] is reported as 0.5 µg/mL (≈ 1.5 µM).
Work on COC(=O)c1ccc(N2C[C@H](CNC(C)=O)OC2=O)cc1 yielded an MIC [1] of 2 µg/mL (≈ 6.84 µM) and an MIC [2] of 2 µg/mL (≈ 6.84 µM).
CC(=O)NC[C@H]1CN(c2ccc(S(=O)(=O)CF)cc2)C(=O)O1 was tested, and the MIC [1] was 1 µg/mL (≈ 3.03 µM) and the MIC [2] was 1 µg/mL (≈ 3.03 µM).
CC(=O)NC[C@H]1CN(c2ccc(C(=O)C(C)C)cc2)C(=O)O1 was tested, and the MIC [1] was 1 µg/mL (≈ 3.29 µM) and the MIC [2] was 1 µg/mL (≈ 3.29 µM).
CC(=O)NC[C@H]1CN(c2ccc(C(=O)CBr)cc2)C(=O)O1 gave an MIC [1] of 8 µg/mL (≈ 22.5 µM) and an MIC [2] of 4 µg/mL (≈ 11.3 µM).
CC(=O)NC[C@H]1CN(c2ccc(SC(F)(F)F)cc2)C(=O)O1 gave an MIC [1] of 4 µg/mL (≈ 12 µM) and an MIC [2] of 4 µg/mL (≈ 12 µM).
Compound CC(=O)NC[C@H]1CN(c2ccc([N+](=O)[O-])cc2)C(=O)O1 has an MIC [1] of 2 µg/mL (≈ 7.16 µM) and an MIC [2] of 2 µg/mL (≈ 7.16 µM).
With CCSc1ccc(N2C[C@H](CNC(C)=O)OC2=O)cc1 the MIC [1] was 2 µg/mL (≈ 6.79 µM) and the MIC [2] was 1 µg/mL (≈ 3.4 µM).
Work on CC(=O)NC[C@H]1CN(c2ccc(N(C)C)cc2)C(=O)O1 yielded an MIC [1] of 16 µg/mL (≈ 57.7 µM) and an MIC [2] of 16 µg/mL (≈ 57.7 µM).
With CC(=O)NC[C@H]1CN(c2ccc(S(=O)(=O)C(F)(F)F)cc2)C(=O)O1 the MIC [1] was 2 µg/mL (≈ 5.46 µM) and the MIC [2] was 2 µg/mL (≈ 5.46 µM).
With CCCC(O)c1ccc(N2C[C@H](CNC(C)=O)OC2=O)cc1 (stereo partly specified) the MIC [1] was 32 µg/mL (≈ 104 µM) and the MIC [2] was 16 µg/mL (≈ 52.2 µM).
In the case of CC(=O)NC[C@H]1CN(c2ccc(/C(C)=N\O)cc2)C(=O)O1, the MIC [1] is reported as 2 µg/mL (≈ 6.87 µM) and the MIC [2] is reported as 4 µg/mL (≈ 13.7 µM).
In the case of CCCSc1ccc(N2C[C@H](CNC(C)=O)OC2=O)cc1, the MIC [1] is reported as 8 µg/mL (≈ 25.9 µM) and the MIC [2] is reported as 8 µg/mL (≈ 25.9 µM).
With CC(=O)NC[C@H]1CN(c2ccc(C(=O)CCl)cc2)C(=O)O1 the MIC [1] was 2 µg/mL (≈ 6.44 µM) and the MIC [2] was 0.5 µg/mL (≈ 1.61 µM).
CCS(=O)(=O)c1ccc(N2C[C@H](CNC(C)=O)OC2=O)cc1 was tested, and the MIC [1] was 8 µg/mL (≈ 24.5 µM) and the MIC [2] was 8 µg/mL (≈ 24.5 µM).
In the case of CC(=O)NC[C@H]1CN(c2ccc(C(C)(C)C)cc2)C(=O)O1, the MIC [1] is reported as 2 µg/mL (≈ 6.89 µM) and the MIC [2] is reported as 1 µg/mL (≈ 3.44 µM).
Work on CCc1ccc(N2C[C@H](CNC(C)=O)OC2=O)cc1 yielded an MIC [1] of 8 µg/mL (≈ 30.5 µM) and an MIC [2] of 4 µg/mL (≈ 15.2 µM).
In the case of CCCS(=O)(=O)c1ccc(N2C[C@H](CNC(C)=O)OC2=O)cc1, the MIC [1] is reported as 32 µg/mL (≈ 94 µM) and the MIC [2] is reported as 32 µg/mL (≈ 94 µM).
CC(=O)NC[C@H]1CN(c2ccc([S+]([O-])C(F)(F)F)cc2)C(=O)O1 (stereo partly specified) was tested, and the MIC [1] was 2 µg/mL (≈ 5.71 µM) and the MIC [2] was 2 µg/mL (≈ 5.71 µM).
For C=Cc1ccc(N2C[C@H](CNC(C)=O)OC2=O)cc1, the MIC [1] was 8 µg/mL (≈ 30.7 µM) and the MIC [2] was 4 µg/mL (≈ 15.4 µM).
CCCCOc1ccc(N2C[C@H](CNC(C)=O)OC2=O)cc1 gave an MIC [1] of 16 µg/mL (≈ 52.2 µM) and an MIC [2] of 8 µg/mL (≈ 26.1 µM).
CC(=O)NC[C@H]1CN(c2ccc(S(C)(=O)=O)cc2)C(=O)O1 gave an MIC [1] of 4 µg/mL (≈ 12.8 µM) and an MIC [2] of 4 µg/mL (≈ 12.8 µM).
Compound CC(=O)NCC(=O)c1ccc(N2C[C@H](CNC(C)=O)OC2=O)cc1 has an MIC [1] of 16 µg/mL (≈ 48 µM) and an MIC [2] of 8 µg/mL (≈ 24 µM).
CC(=O)Cc1ccc(N2C[C@H](CNC(C)=O)OC2=O)cc1 showed an MIC [1] of 8 µg/mL (≈ 27.6 µM) and an MIC [2] of 4 µg/mL (≈ 13.8 µM).
In the case of CC(=O)NC[C@H]1CN(c2ccc(Sc3ccccc3)cc2)C(=O)O1, the MIC [1] is reported as 128 µg/mL (≈ 374 µM) and the MIC [2] is reported as > 128 µg/mL.
CCC[S+]([O-])c1ccc(N2C[C@H](CNC(C)=O)OC2=O)cc1 (stereo partly specified) gave an MIC [1] of 64 µg/mL (≈ 197 µM) and an MIC [2] of 32 µg/mL (≈ 98.6 µM).
With CSc1ccc(N2C[C@H](CNC(C)=O)OC2=O)cc1 the MIC [1] was 4 µg/mL (≈ 14.3 µM) and the MIC [2] was 4 µg/mL (≈ 14.3 µM).
Compound CCC(O)c1ccc(N2C[C@H](CNC(C)=O)OC2=O)cc1 (stereo partly specified) has an MIC [1] of 64 µg/mL (≈ 219 µM) and an MIC [2] of 32 µg/mL (≈ 109 µM).
Work on CC(=O)NC[C@H]1CN(c2ccc(C(F)(F)F)cc2)C(=O)O1 yielded an MIC [1] of 8 µg/mL (≈ 26.5 µM) and an MIC [2] of 8 µg/mL (≈ 26.5 µM).
For CC(=O)NCC1CN(c2ccc(Cl)cc2)C(=O)O1 (racemic), the MIC [1] was 64 µg/mL (≈ 238 µM) and the MIC [2] was 32 µg/mL (≈ 119 µM).
CC(=O)NCC1CN(c2ccc(CO)cc2)C(=O)O1 (racemic) was tested, and the MIC [1] was 16 µg/mL (≈ 60.5 µM) and the MIC [2] was 32 µg/mL (≈ 121 µM).
CC(=O)NCC1CN(c2ccc(Oc3ccccc3)cc2)C(=O)O1 (racemic) showed an MIC [1] of 64 µg/mL (≈ 196 µM) and an MIC [2] of 64 µg/mL (≈ 196 µM).
CCCCc1ccc(N2CC(CNC(C)=O)OC2=O)cc1 (racemic) was tested, and the MIC [1] was 4 µg/mL (≈ 13.8 µM) and the MIC [2] was 4 µg/mL (≈ 13.8 µM).
In the case of CC(=O)NCC1CN(c2ccc(C(C)C)cc2)C(=O)O1 (racemic), the MIC [1] is reported as 4 µg/mL (≈ 14.5 µM) and the MIC [2] is reported as 4 µg/mL (≈ 14.5 µM).
In the case of CC(=O)NCC1CN(c2ccc(F)cc2)C(=O)O1 (racemic), the MIC [1] is reported as > 64 µg/mL and the MIC [2] is reported as > 64 µg/mL.
For CCOC(=O)c1ccc(N2CC(CNC(C)=O)OC2=O)cc1 (racemic), the MIC [1] was 4 µg/mL (≈ 13.1 µM) and the MIC [2] was 4 µg/mL (≈ 13.1 µM).
CC(=O)NCC1CN(c2ccc(C#N)cc2)C(=O)O1 (racemic) was tested, and the MIC [1] was 16 µg/mL (≈ 61.7 µM) and the MIC [2] was 16 µg/mL (≈ 61.7 µM).
COc1ccc(N2CC(CNC(C)=O)OC2=O)cc1 (racemic) gave an MIC [1] of 32 µg/mL (≈ 121 µM) and an MIC [2] of 32 µg/mL (≈ 121 µM).
CC[S+]([O-])c1ccc(N2CC(CNC(C)=O)OC2=O)cc1 (single isomer, unassigned) showed an MIC [1] of 16 µg/mL (≈ 51.6 µM) and an MIC [2] of 16 µg/mL (≈ 51.6 µM).
In the case of CC(=O)NC[C@H]1CN(c2ccc(C(C)=O)cc2)C(=O)O1 [DUP-721], the MIC [1] is reported as 1 µg/mL (≈ 3.62 µM) and the MIC [2] is reported as 0.5 µg/mL (≈ 1.81 µM).
